This is an account of results in patent US20260306495A1, “COMBINATION OF CAPIVASERTIB, A CDK4/6 INHIBITOR AND FULVESTRANT FOR USE IN THE TREATMENT OF BREAST CANCER” (AstraZeneca AB, priority 2023, published 2026).

A short description of data set [1]: Pharmacokinetics, palbociclib triplet, CAPItello-292 Phase Ib. Type of data set: in vivo, human. Here is the method:
In the open-label Phase Ib part of the study: • The initial palbociclib cohort will receive capivasertib (320 mg oral twice daily, 4 days on and 3 days off for 4 weeks), palbociclib (125 mg, oral once daily, dosed continually for 21 days out of 28 days), and fulvestrant (500 mg intramuscular injection [IM] monthly [Day 1 of a 28-day cycle] with a loading dose of 500 mg 2 weeks after the first dose). • The initial ribociclib cohort will explore the combination of capivasertib (400 mg oral twice daily, 4 days on and 3 days off for 4 weeks), ribociclib (400 mg, oral once daily, dosed continually for 21 days out of 28 days), and fulvestrant (500 mg IM monthly [Day 1 of a 28-day cycle] with a loading dose of 500 mg 2 weeks after the first dose). • The initial abemaciclib cohort will explore the combination of capivasertib (400 mg oral twice daily, 4 days on and 3 days off for 4 weeks), abemaciclib (100 mg, oral twice daily, 28 days out of 28 days), and fulvestrant (500 mg IM monthly [Day 1 of a 28-day cycle] with a loading dose of 500 mg 2 weeks after the first dose).
At the time of data cut-off of 31 Oct. 2022, 39 patients had been treated with capivasertib in combination with palbociclib and fulvestrant across three dose levels. Dose 1 opened first; dose levels 2 and 3 opened simultaneously: • Dose level 1: capivasertib 320 mg+palbociclib 125 mg+fulvestrant 500 mg • Dose level 2: capivasertib 400 mg+palbociclib 100 mg+fulvestrant 500 mg • Dose level 3: capivasertib 400 mg+palbociclib 125 mg+fulvestrant 500 mg

Data set [2] can be described thus: Pharmacokinetics, ribociclib triplet (preliminary modelling from clinical data). Type of data set: in vivo, human. Conditions: for Increase of capivasertib AUC vs historical monotherapy data: preliminary modelling from clinical data. Here is the method: In the open-label Phase Ib part of the study: • The initial palbociclib cohort will receive capivasertib (320 mg oral twice daily, 4 days on and 3 days off for 4 weeks), palbociclib (125 mg, oral once daily, dosed continually for 21 days out of 28 days), and fulvestrant (500 mg intramuscular injection [IM] monthly [Day 1 of a 28-day cycle] with a loading dose of 500 mg 2 weeks after the first dose). • The initial ribociclib cohort will explore the combination of capivasertib (400 mg oral twice daily, 4 days on and 3 days off for 4 weeks), ribociclib (400 mg, oral once daily, dosed continually for 21 days out of 28 days), and fulvestrant (500 mg IM monthly [Day 1 of a 28-day cycle] with a loading dose of 500 mg 2 weeks after the first dose). • The initial abemaciclib cohort will explore the combination of capivasertib (400 mg oral twice daily, 4 days on and 3 days off for 4 weeks), abemaciclib (100 mg, oral twice daily, 28 days out of 28 days), and fulvestrant (500 mg IM monthly [Day 1 of a 28-day cycle] with a loading dose of 500 mg 2 weeks after the first dose). […]

A short description of data set [3]: Pharmacokinetics, Japanese participants. The format is in vivo, human (Japanese). Conditions: 100 mg oral (Japanese) vs 125 mg oral (rest of the world), with capivasertib 400 mg; preliminary limited data. The text has this: (§1) For the Phase Ib part of the study, participants must be eligible for fulvestrant therapy and at least one of the following: palbociclib, ribociclib, or abemaciclib, as per local investigator assessment. Participants who received treatment with at least one prior endocrine therapy (alone or in combination) for ABC and a maximum of 2 lines prior chemotherapy (for global participants) or up to 1 prior line of chemotherapy (for Japanese participants) are eligible. […]

The conditions of data set [4]: Yu Y, et al. J Clin Pharmacol 2017; 57 (2): 173-184; cited from earlier work.
For data set [5], the system named is participants with locally advanced (inoperable) or metastatic HR+/HER2− breast cancer. Put plainly: Dose-limiting toxicities (DLTs), CAPItello-292 Phase Ib, palbociclib triplet. Type of data set: in vivo, human. Conditions: triplet with capivasertib and fulvestrant. The text has this: The Phase Ib part of the study consists of an open-label, 3-arm dose finding phase to determine the safe and well tolerated doses and schedules (RP3D) of capivasertib plus CDK4/6i (palbociclib, ribociclib, or abemaciclib) and fulvestrant (the latter administered at fixed dose and schedule, as per label) as triplet combinations in participants with ABC. The maximum tolerated doses (MTD) may also be determined. […]

For data set [6], the system named is Japanese participants. Briefly: DLTs, Japanese participants. The format is in vivo, human (Japanese). Conditions: capivasertib + palbociclib 125 mg + fulvestrant.
Text: as §1

Take `NC1(C(=O)N[C@@H](CCO)c2ccc(Cl)cc2)CCN(c2ncnc3[nH]ccc23)CC1` [capivasertib, (S)-4-amino-N-(1-(4-chlorophenyl)-3-hydroxypropyl)-1-(7H-pyrrolo[2,3-d]pyrimidin-4-yl) piperidine-4-carboxamide]: the “PK of capivasertib versus previous monotherapy data” value in data set [1] (in combination with palbociclib and fulvestrant) is listed as “consistent with previous monotherapy data”. Besides, the “Increase of capivasertib AUC vs historical monotherapy data” value in data set [2] (with ribociclib 400 mg, 95% CI 1% to 43%) was found to be 19%; in data set [2] (with ribociclib 600 mg, 95% CI 0% to 34%) it was 16%.

Consider `CC(=O)c1c(C)c2cnc(Nc3ccc(N4CCNCC4)cn3)nc2n(C2CCCC2)c1=O` [palbociclib, 6-acetyl-8-cyclopentyl-5-methyl-2-{[5-(1-piperazinyl)-2-pyridinyl]amino}pyrido[2,3-d]pyrimidin-7 (8H)-one], for which the “Palbociclib AUC accumulation, Day 11/Day 1 ratio” value in data set [1] (Cycle 1 Day 11 / Cycle 0 Day 1, with capivasertib and fulvestrant, 90% CI) is 2.89 (90% CI 2.64-3.15). For the same molecule, the “Palbociclib AUC accumulation, Day 14/Day 1 ratio” value in data set [1] (Cycle 1 Day 14 / Cycle 0 Day 1, with capivasertib and fulvestrant, 90% CI) was 2.77 (90% CI 2.54-3.03). Also, the “Increase of palbociclib area under curve (AUC) by capivasertib” value in data set [1] (based on observed and expected accumulation from Cycle 0, Day 1 to Cycle 1, Day 11 and Day 14) is given as “approximately 20%”. Besides, the “Mean palbociclib plasma exposure, Japanese participants vs rest of the world” value in data set [3] was “roughly similar”. Moreover, in data set [4], the “Palbociclib expected accumulation ratio” value is 2.4. The “Cause of the most frequent DLT (neutropenia/neutrophil count decreased)” value in data set [5] is “driven by palbociclib”. In data set [6], the “Incidence of DLTs (febrile neutropenia)” value is recorded as “led to palbociclib dose de-escalation from 125 mg to 100 mg”.

For `CN(C)C(=O)c1cc2cnc(Nc3ccc(N4CCNCC4)cn3)nc2n1C1CCCC1` [ribociclib, 7-cyclopentyl-N,N-dimethyl-2-{[5-(1-piperazinyl)-2-pyridinyl]amino}-7H-pyrrolo[2,3-d]pyrimidine-6-carboxamide], the “Ribociclib exposure vs published population PK model” value in data set [2] (with capivasertib, consistent with DDI predictions based on capivasertib as a weak CYP3A inhibitor) was “generally within model predictions”.
